Source: ChEMBL document CHEMBL1177745, “Isolation, characterization, and bioactivity of cyclotides from the Micronesian plant Psychotria leptothyrsa” (J Nat Prod, 2010)
pIC50: −log10 of the molar value.

Test system: U-937/GTB
Experiment: Cytotoxicity against human U937/GTB cells by fluorometric microculture cytotoxicity assay
Type: functional, cell-based

Structure (SMILES) | pIC50
CC[C@@H](C)[C@@H]1NC(=O)[C@@H]2CSSC[C@@H]3NC(=O)[C@H](C(C)C)NC(=O)[C@H](CCCCN)NC(=O)[C@H](CC(N)=O)NC(=O)[C@@H](CCCCN)NC(=O)[C@@H]4CSSC[C@H](NC(=O)[C@H](CO)NC(=O)[C@H](CCC(=O)O)NC(=O)CNC(=O)[C@H](CSSC[C@H](NC(=O)CNC(=O)[C@H](CC(C)C)NC(=O)[C@H](C(C)C)NC(=O)[C@H](CO)NC(=O)[C@H](CO)NC1=O)C(=O)N[C@@H](CO)C(=O)N4)NC(=O)[C@@H]1CCCN1C(=O)[C@H]([C@H](C)CC)NC(=O)[C@H](C(C)C)NC(=O)CNC(=O)[C@H](CC(=O)O)NC(=O)[C@H](CCCNC(=N)N)NC(=O)[C@H](Cc1ccc(O)cc1)NC3=O)C(=O)N[C@@H](C(C)C)C(=O)N[C@@H](Cc1ccccc1)C(=O)N[C@@H]([C@@H](C)CC)C(=O)N1CCC[C@H]1C(=O)N2 | 5.46
CC[C@H](C)[C@@H]1NC(=O)CNC(=O)[C@@H](CC(N)=O)NC(=O)[C@H](Cc2ccccc2)NC(=O)[C@H](Cc2ccc(O)cc2)NC(=O)[C@@H]2CSSC[C@@H]3NC(=O)CNC(=O)[C@H](CC(C)C)NC(=O)[C@H](Cc4ccccc4)NC(=O)[C@H](C(C)C)NC(=O)[C@H]4CSSC[C@H](NC(=O)[C@H](CO)NC(=O)[C@H](CSSC[C@H](NC(=O)[C@H](C)NC1=O)C(=O)NCC(=O)N[C@@H](CCC(=O)O)C(=O)N[C@@H](CO)C(=O)N4)NC(=O)CNC(=O)[C@@H]1CCCN1C(=O)[C@H]([C@@H](C)CC)NC(=O)[C@H](Cc1ccccc1)NC3=O)C(=O)N[C@@H](CCCCN)C(=O)N[C@@H](CO)C(=O)N[C@@H](CCCCN)C(=O)N[C@@H](C(C)C)C(=O)N2 [PSYLE A] | 4.59
